One may read the pKi as −log10 of the Ki, conventionally taken in molar units. Low readings indicate a high Ki, high ones a low Ki. Usually pEC50 stands for the negative decadic logarithm of the EC50, by convention in mol/L. One may read the solubility as the dissolved amount per volume that the medium holds.

SMILES strings stand for the structures. pEC50, pKi: −log10 of the molar value. Values after ≈ are worked out from the molar mass of the structure shown. Where only a bound is given, the exact number is not on record here.

Data set [1] deals with T1, Adenosine receptor A3 (Homo sapiens, UniProt P0DMS8).
T1 sequence (P0DMS8 whole entry): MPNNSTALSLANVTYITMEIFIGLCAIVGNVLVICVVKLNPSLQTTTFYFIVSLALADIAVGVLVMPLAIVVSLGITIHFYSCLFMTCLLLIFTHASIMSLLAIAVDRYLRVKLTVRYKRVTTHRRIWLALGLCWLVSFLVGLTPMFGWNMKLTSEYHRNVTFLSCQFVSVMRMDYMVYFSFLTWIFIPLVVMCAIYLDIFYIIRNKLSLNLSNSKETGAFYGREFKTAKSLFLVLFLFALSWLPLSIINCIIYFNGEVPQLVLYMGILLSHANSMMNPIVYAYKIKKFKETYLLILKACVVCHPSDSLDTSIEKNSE
The experiment in a line: Binding affinity to human adenosine A3 receptor.

Data set [2] addresses Adenosine receptors; A1 & A3 (Homo sapiens) (UniProt P30542+P0DMS8). In words: Selectivity for human adenosine A3 receptor over human adenosine A1 receptor. It counts as protein assay.
For data set [3], the target named is T1, Adenosine receptor A3. In words: Inhibition of isoproterenol-induced increase of cAMP in HEK293 cell expressing human adenosine A3 receptor. The format is functional, cell-based.
Data set [4] is described as follows: Solubility in citrate buffer at pH 4. The format is physicochemical.
The target in data set [5] is T2, Adenosine receptor A2b (Homo sapiens) (UniProt P29275).
T2 sequence (whole entry): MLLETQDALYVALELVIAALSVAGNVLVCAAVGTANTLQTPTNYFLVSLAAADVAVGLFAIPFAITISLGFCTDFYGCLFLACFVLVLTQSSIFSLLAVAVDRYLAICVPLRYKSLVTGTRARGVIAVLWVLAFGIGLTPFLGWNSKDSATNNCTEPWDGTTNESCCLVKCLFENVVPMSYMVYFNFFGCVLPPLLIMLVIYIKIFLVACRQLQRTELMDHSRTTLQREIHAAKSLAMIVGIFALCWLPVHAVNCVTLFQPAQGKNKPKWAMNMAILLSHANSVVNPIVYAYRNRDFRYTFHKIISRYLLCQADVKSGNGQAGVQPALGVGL
In words: Increase of cAMP production in HEK293 cell expressing human adenosine A2B receptor at 3 uM. The format is functional, cell-based. (In general: Changes in cAMP serve as a functional read-out for many G protein-coupled receptors.)

Data set [6] addresses Adenosine receptor A2a (Homo sapiens) (UniProt P29274). In words: Increase of cAMP production in HEK293 cell expressing human adenosine A2A receptor at 3 uM. The format is functional, cell-based.

Sequence of Adenosine receptors; A1 & A3 (Homo sapiens) (P30542 whole entry, looked up, one chain of several): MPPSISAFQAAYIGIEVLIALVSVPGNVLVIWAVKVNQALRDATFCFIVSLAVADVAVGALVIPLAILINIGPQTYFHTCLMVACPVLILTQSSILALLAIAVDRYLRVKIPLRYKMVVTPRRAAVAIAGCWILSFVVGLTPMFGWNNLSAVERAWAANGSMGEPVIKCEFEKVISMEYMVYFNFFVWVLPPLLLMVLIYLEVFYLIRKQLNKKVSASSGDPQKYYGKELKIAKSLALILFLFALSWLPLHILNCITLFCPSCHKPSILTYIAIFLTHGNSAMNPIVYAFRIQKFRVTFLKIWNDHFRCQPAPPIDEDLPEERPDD
Sequence of Adenosine receptor A2a (Homo sapiens) (P29274 whole entry): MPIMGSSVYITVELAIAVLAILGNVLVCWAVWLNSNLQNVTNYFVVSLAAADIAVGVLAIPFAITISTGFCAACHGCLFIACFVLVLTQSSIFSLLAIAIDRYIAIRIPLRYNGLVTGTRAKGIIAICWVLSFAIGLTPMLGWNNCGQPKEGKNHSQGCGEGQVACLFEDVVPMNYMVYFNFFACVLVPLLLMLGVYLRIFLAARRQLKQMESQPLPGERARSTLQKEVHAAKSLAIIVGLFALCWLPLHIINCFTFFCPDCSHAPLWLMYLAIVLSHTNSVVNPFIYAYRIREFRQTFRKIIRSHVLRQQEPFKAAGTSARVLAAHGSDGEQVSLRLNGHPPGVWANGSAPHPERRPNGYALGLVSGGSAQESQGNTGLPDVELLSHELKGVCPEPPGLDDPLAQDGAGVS

`CNC(=O)[C@H]1O[C@@H](n2cnc3c(NCc4cc(OC)ccc4OC)ncnc32)[C@H](O)[C@@H]1O` showed a pKi in data set [1] of 8.41. In addition, in data set [2], the Selectivity ratio was 45.
For `CNC(=O)[C@H]1O[C@@H](n2cnc3c(NCc4cc(Cl)ccc4OCC(=O)N4CCCCC4)ncnc32)[C@H](O)[C@@H]1N`, in that order: 7.74 and 720.
The corresponding values for `CNC(=O)[C@H]1O[C@@H](n2cnc3c(NCc4cc(OC)ccc4OC)ncnc32)[C@H](O)[C@@H]1N` are 6.80 and 294.
For the compound `CCNC(=O)N[C@H]1[C@@H](O)[C@H](n2cnc3c(NC)ncnc32)O[C@@H]1C(=O)NC`, the pKi in data set [1] was below 5.52.
`CNC(=O)[C@H]1O[C@@H](n2cnc3c(NCc4cc(Cl)ccc4OCC(=O)O)ncnc32)[C@H](O)[C@@H]1N` had a pKi in data set [1] of 6.89. Further, in data set [2], the Selectivity ratio turned out to be 222.
For the compound `CNC(=O)[C@@H]1C[C@@H](O)[C@H](n2cnc3c(NC)ncnc32)O1`, the pKi in data set [1] is 7.23. Further, the Selectivity ratio in data set [2] amounted to 6.
`CNC(=O)[C@H]1O[C@@H](n2cnc3c(NCc4cc(Cl)ccc4OC)ncnc32)[C@H](O)[C@@H]1N` showed a pKi in data set [1] of 7.82. Also, in data set [2], the Selectivity ratio is 317.
The corresponding values for `CNC(=O)[C@H]1O[C@@H](n2cnc3c(NCc4cc(Cl)ccc4OCc4ccccc4)ncnc32)[C@H](O)[C@@H]1N` are 7.80 and 691.
The corresponding values for `CNC(=O)[C@H]1O[C@@H](n2cnc3c(NCc4cc(Cl)cc(Cl)c4)ncnc32)[C@H](O)[C@@H]1O` are 8.60 and 9.4.
As for `CNC(=O)[C@H]1O[C@@H](n2cnc3c(NC)ncnc32)[C@H](O)[C@@H]1O`, the Selectivity ratio in data set [2] came to 13.
With `CNC(=O)[C@H]1O[C@@H](n2cnc3c(NCc4cc(Cl)ccc4OCC(N)=O)ncnc32)[C@H](O)[C@@H]1N`, the pKi in data set [1] is 8.17. The Selectivity ratio in data set [2] was determined as 526.
`CNC(=O)[C@H]1O[C@@H](n2cnc3c(NC)ncnc32)[C@H](O)[C@@H]1N`: the Selectivity ratio in data set [2] is 194.
For `CNC(=O)[C@H]1O[C@@H](n2cnc3c(NCc4cc(Cl)ccc4OCC(=O)N4CCOCC4)ncnc32)[C@H](O)[C@@H]1N`, the pKi in data set [1] was 7.70. Besides, the Selectivity ratio in data set [2] amounted to 700.
The compound `CNC(=O)[C@H]1O[C@@H](n2cnc3c(NC)ncnc32)[C@H](O)[C@@H]1NS(C)(=O)=O` had a pKi in data set [1] below 5.52.
Still for that read-out and setting: for `CNC(=O)[C@H]1O[C@@H](n2cnc3c(NC)ncnc32)[C@H](O)[C@@H]1NC(C)=O` the value was below 5.52.
For `CNC(=O)[C@H]1O[C@@H](n2cnc3c(NCc4cc(Cl)cc(Cl)c4)ncnc32)[C@H](O)[C@@H]1N`, the pKi in data set [1] is 7.60. Also, in data set [2], the Selectivity ratio came out at 148.
In data set [3], `CNC(=O)[C@H]1O[C@@H](n2cnc3c(NCc4cc(Cl)ccc4OCC(=O)N4CCNCC4)ncnc32)[C@H](O)[C@@H]1N` gave a pEC50 of 8.09. The compound further displayed a solubility in data set [4] of 50 mg/mL (≈ 89.3 mM). Besides, the Activity in data set [5] was determined as 1%; in data set [6], 16%. In data set [1], this compound had a pKi of 8.03. The Selectivity ratio in data set [2] was determined as 445.
In data set [1], `CNC(=O)[C@H]1O[C@@H](n2cnc3c(NCc4cc(Cl)ccc4OCC(=O)N4CCC(N(C)C)CC4)ncnc32)[C@H](O)[C@@H]1N` had a pKi of 8.04. The Selectivity ratio in data set [2] was 456.
For `CNC(=O)[C@H]1O[C@@H](n2cnc3c(NC)ncnc32)C[C@@H]1O`, the pKi in data set [1] is 7.06. The Selectivity ratio in data set [2] was 12.6.

For the origin of these results see ChEMBL document CHEMBL1146991, “The synthesis of highly potent, selective, and water-soluble agonists at the human adenosine A3 receptor” (Bioorg Med Chem Lett, 2006).
